Reference: US20050221328A1, “Inhibitors of inflammatory gene activity and cholesterol biosynthesis” (Wyeth, priority 2002, published 2005)
Entries after “also recorded” stand apart in the source; their conditions may differ.

Key:
[1] = tested on: SHP; experiment: Regulation of SHP expression in mouse liver, six weeks treatment, real time PCR; type: in vivo; conditions: for liver SHP mRNA levels, WT animals: ovariectomized wildtype mice, sc six weeks, 10 ug/kg/day E2, 5 mg/kg/day tamoxifen, 5 mg/kg/day PPT
Description: Several experiments were conducted to investigate the regulation of SHP expression, as follows. Referring to FIG. 9, ERα regulation of SHP expression in mouse liver was studied. […] Liver expression of SHP was monitored by real time PCR, with normalization for GAPDH expression. […] ICI182780 inhibited this induction.

[2] = tested on: SHP; experiment: Regulation of SHP by estrogen in the rat liver, real time PCR; type: in vivo; conditions: ovariectomized Sprague-Dawley rats, 10 ug/kg/day E2 or 5 mg/kg/day PPT, six weeks
Excerpt: Liver expression of SHP was monitored by real time PCR, with normalization for GAPDH expression.

[3] = tested on: Fnk, JAB, LIX, bcl-3 and SHP; experiment: Liver expression of Fnk, JAB, LIX, bcl-3 and SHP by realtime PCR after estrogen receptor ligand pretreatment and IL-1β; conditions: for effect on regulation of liver Fnk, JAB, LIX, bcl-3 and SHP expression vs IL-1β alone / inhibition of IL-1β induction of Fnk, JAB, LIX and bcl-3: 100 ug/kg/day EE, 5 mg/kg/day raloxifene; for effect on regulation of liver Fnk, JAB, LIX, bcl-3 and SHP expression vs IL-1β alone: 1 or 10 mg/kg/day E2, 30 mg/kg/day genistein, 10 mg/kg/day ICI182780, plus IL-1β; for inhibition of IL-1β induction of Fnk, JAB, LIX and bcl-3: mouse liver, 30 mg/kg/day genistein
Description: Referring to FIG. 3a, to distinguish these two mechanisms, the IL-1β fold induction of Fnk, JAB, LIX, and bcl-3 and the IL-1β fold repression of SHP was quantified in animals pretreated with vehicle (black bars) or 100 ug/kg/day EE (grey bars). Liver RNA levels of each gene (mean +/−SEM) were determined by realtime PCR of RNA from each individual animal.
Referring to FIGS. 4a, 4b, 4c, 4d and 4e, experiments were conducted to determine whether EE blocks IL-1β induction of gene expression by an estrogen receptor (ER) dependent mechanism. Estrogens can regulate gene expression by many mechanisms including ER independent pathways such as antioxidant mechanisms. […] Liver expression levels of Fnk, JAB, LIX, bcl-3 and SHP (mean +/−SEM) were determined by realtime PCR.
Referring to FIGS. 5a, 5b, 5c, 5d, and 5e, experiments were conducted to determine whether ERα is required for EE regulation of gene expression in the liver. To determine whether ERα or ERβ mediated the EE effects on IL-1β gene expression in the liver, C57BL/6 wild type mice, C57BL/6 ERαKO mice, or 129 ERβKO mice were pretreated with vehicle (black bars) or […] EE (gray bars) for 5 days followed by a 1 hour treatment with IL-1β. Liver expression levels of Fnk, JAB, LIX, bcl-3, and SHP (mean +/−SEM) were quantified by realtime PCR, with expression in animals receiving vehicle+PBS defined as 1.0.

[4] = tested on: prostaglandin D synthase, IPS; experiment: Liver expression of prostaglandin D synthase and IPS; type: in vivo; conditions: mouse liver; 30 mg/kg/day genistein, 5 mg/kg/day raloxifene
Excerpt: Referring to FIGS. 6a and 6b, experiments were constructed and performed to establish that EE induction of gene expression is not required for ERα inhibition of IL-1β gene inductions. […] The expression level in the vehicle+PBS treated mice was defined as 1.0. […] However, there was no correlation between the ability of these compounds to inhibit IL-1β gene induction (EE>genistein>raloxifene) and the ability of these compounds to stimulate prostaglandin D synthase expression (EE>>raloxifene>genistein).

[5] = tested on: human SHP promoter; experiment: hSHP promoter luciferase reporter in HepG2 or 293 cells cotransfected with human ERα; type: cell-based; conditions: for SHP promoter activity, compound alone: 10 nM E2 or 1 uM compound, 24 hours
Description: Referring to FIGS. 11a and 11b, ERα regulation of hSHP promoter activity in human cells was examined. Human HepG2 or 293 cells were cotransfected with a control SV40 driven β-galactosidase plasmid, a luceriferase plasmid driven by 1.4 kb of the human SHP promoter, and an expression plasmid encoding either no protein or human ERα. […] Cell extracts were then analyzed for luciferase activity normalized for β-galactosidase activity.
Referring to FIGS. 12a, 12b, and 12c, ERα regulation of hSHP promoter activity in 293 cells was examined. Referring to FIGS. 12a and 12b, 293 cells were cotransfected with a control SV4O driven […] plasmid, a luceriferase plasmid driven by either 1.4 kb of the human SHP promoter or a synthetic 2×ERE/TK promoter, and an expression plasmid for human ERα. […] Cell extracts were then analyzed for luciferase activity with normalization for β-galaetosidase activity.

| SMILES | liver SHP mRNA levels, WT animals [1] | liver SHP expression, rat [2] | effect on regulation of liver Fnk, JAB, LIX, bcl-3 and SHP expression vs IL-1β alone ([3]; mice) | inhibition of IL-1β induction of Fnk, JAB, LIX and bcl-3 [3] | induction of IPS [4] | SHP expression in liver ([3]; mice, 5 mg/kg/day raloxifene (FIG. 4)) | SHP promoter activity, compound alone ([5]; 293 cells with human ERα) | effect on E2 activity at SHP promoter ([5]; 293 cells with human ERα, 1 uM compound plus 10 nM E2) | expression of SHP in ERαKO or ERαβKO mice ([1]; 10 ug/kg/day E2, six weeks) | expression of SHP in ERβKO mice ([1]; 10 ug/kg/day E2, six weeks) | SHP promoter activity ([5]; HepG2 or 293 cells, 10 nM E2 24 hours, only in cells expressing ERα) |
| --- | --- | --- | --- | --- | --- | --- | --- | --- | --- | --- | --- |
| CCCc1c(-c2ccc(O)cc2)nn(-c2ccc(O)cc2)c1-c1ccc(O)cc1 [PPT] | induced | significantly induced | – | – | – | – | – | – | – | – | – |
| O=c1c(-c2ccc(O)cc2)coc2cc(O)cc(O)c12 [Genistein, genistein] | – | – | magnitude was not as great | inhibited | no induction | – | – | – | – | – | – |
| O=C(c1ccc(OCCN2CCCCC2)cc1)c1c(-c2ccc(O)cc2)sc2cc(O)ccc12 [raloxifene] | – | – | magnitude was not as great | able to inhibit; also recorded: inhibited | very weak induction | did not increase | inactive alone | antagonized | – | – | – |
| C[C@]12CC[C@@H]3c4ccc(O)cc4CC[C@H]3[C@@H]1CC[C@@H]2O [E2, 17β-estradiol] | induced | significantly induced | greatest effect | – | – | – | stimulated | – | did not induce | still induced | induced |
